{"source": "patent US4421911A", "about": "“Deoxydesmycosin” (priority 1981, dated 1983)", "assay_type_in_all_cases": "cell-based", "key": {"[1]": {"system": "Staphylococcus aureus ATCC6538p", "assay": "Minimum inhibitory concentration (MIC), Staphylococcus aureus ATCC6538p"}, "[2]": {"system": "Staphylococcus aureus MS353", "assay": "Minimum inhibitory concentration (MIC), Staphylococcus aureus MS353"}, "[3]": {"system": "Staphylococcus aureus MS353AO", "assay": "Minimum inhibitory concentration (MIC), Staphylococcus aureus MS353AO", "conditions": "macrolide resistant strain A group", "description": "(§1) The minimum inhibitory concentration (MIC) of the compounds of the present invention is illustrated in Table 1.\n(§2) *Macrolide registant strain A group (clinical isolates of erythromycin,\n(§3) oleandomycin and 16membered macrolide antibiotics registant strains)"}, "[4]": {"system": "Staphylococcus aureus 0116", "assay": "Minimum inhibitory concentration (MIC), Staphylococcus aureus 0116", "description": "as §1, §2, §3"}, "[5]": {"system": "Staphylococcus aureus 0119", "assay": "Minimum inhibitory concentration (MIC), Staphylococcus aureus 0119", "description": "as §1, §2, §3"}, "[6]": {"system": "Staphylococcus aureus 0127", "assay": "Minimum inhibitory concentration (MIC), Staphylococcus aureus 0127", "description": "as §1, §2, §3"}, "[7]": {"system": "Streptococcus pyogenes N.Y.5", "assay": "Minimum inhibitory concentration (MIC), Streptococcus pyogenes N.Y.5"}, "[8]": {"system": "Streptococcus pyogenes 1022", "assay": "Minimum inhibitory concentration (MIC), Streptococcus pyogenes 1022", "description": "as §1, §2, §3"}, "[9]": {"conditions": "Staphylococcus aureus 0116, macrolide resistant strain A group, read-out: MIC"}, "[10]": {"conditions": "Staphylococcus aureus 0127, macrolide resistant strain A group, read-out: MIC"}, "[11]": {"conditions": "Streptococcus pyogenes 1022, macrolide resistant strain A group, read-out: MIC"}}, "note": "Like-named read-outs stand apart in the source and are kept apart here."}
{"compound": "CCC1OC(=O)CC(O)C(C)C(OC2OC(C)CC(N(C)C)C2O)C(CC=O)CC(C)C(=O)/C=C/C(C)=C/C1COC1OC(C)CC(OC)C1OC", "note": "(centres unmarked) [R1 = H, R2 = H, 4', 4\"-di-deoxy-desmycosin]", "values": [{"measurement": "MIC", "setting": "[1]", "value": 0.4, "unit": "µg/mL"}, {"measurement": "MIC", "setting": "[2]", "value": 0.2, "unit": "µg/mL"}, {"measurement": "MIC", "setting": "[3]", "value": 50, "unit": "µg/mL"}, {"measurement": "MIC", "setting": "[4]; [9]", "value": 3.1, "unit": "µg/mL"}, {"measurement": "MIC", "setting": "[5]; Staphylococcus aureus, 0119", "value": 12.5, "unit": "µg/mL"}, {"measurement": "MIC", "setting": "[6]; [10]", "value": 12.5, "unit": "µg/mL"}, {"measurement": "MIC", "setting": "[7]", "value": "≤ 0.05", "unit": "µg/mL"}, {"measurement": "MIC", "setting": "[8]; [11]", "value": 25, "unit": "µg/mL"}]}
{"compound": "CCC1OC(=O)CC(O)C(C)C(OC2OC(C)CC(N(C)C)C2O)C(CC=O)CC(C)C(=O)/C=C/C(C)=C/C1COC1OC(C)C(O)C(OC)C1OC", "note": "(centres unmarked) [R1 = H, R2 = OH, 4'-deoxy-desmycosin]", "values": [{"measurement": "MIC", "setting": "[1]", "value": 0.8, "unit": "µg/mL"}, {"measurement": "MIC", "setting": "[2]", "value": 0.8, "unit": "µg/mL"}, {"measurement": "MIC", "setting": "[3]", "value": 50, "unit": "µg/mL"}, {"measurement": "MIC", "setting": "[4]; [9]", "value": 3.1, "unit": "µg/mL"}, {"measurement": "MIC", "setting": "[5]; Staphylococcus aureus, 0119", "value": 6.3, "unit": "µg/mL"}, {"measurement": "MIC", "setting": "[6]; [10]", "value": 12.5, "unit": "µg/mL"}, {"measurement": "MIC", "setting": "[7]", "value": 0.1, "unit": "µg/mL"}, {"measurement": "MIC", "setting": "[8]; [11]", "value": 3.1, "unit": "µg/mL"}]}
{"compound": "CCC1OC(=O)CC(O)C(C)C(OC2OC(C)C(O)C(N(C)C)C2O)C(CC=O)CC(C)C(=O)/C=C/C(C)=C/C1COC1OC(C)CC(OC)C1OC", "note": "(centres unmarked) [R1 = OH, R2 = H, 4\"-deoxy-desmycosin]", "values": [{"measurement": "MIC", "setting": "[1]", "value": 0.4, "unit": "µg/mL"}, {"measurement": "MIC", "setting": "[2]", "value": 0.4, "unit": "µg/mL"}, {"measurement": "MIC", "setting": "[3]", "value": 6.3, "unit": "µg/mL"}, {"measurement": "MIC", "setting": "[4]; [9]", "value": 1.6, "unit": "µg/mL"}, {"measurement": "MIC", "setting": "[5]; Staphylococcus aureus 0119, macrolide resistant strain A group, read-out: MIC", "value": 1.6, "unit": "µg/mL"}, {"measurement": "MIC", "setting": "[6]; Staphylococcus aureus, 0127", "value": 6.3, "unit": "µg/mL"}, {"measurement": "MIC", "setting": "[7]", "value": "≤ 0.05", "unit": "µg/mL"}, {"measurement": "MIC", "setting": "[8]; [11]", "value": 3.1, "unit": "µg/mL"}]}
{"compound": "CC[C@H]1OC(=O)C[C@@H](O)[C@H](C)[C@@H](O[C@@H]2O[C@H](C)[C@@H](O[C@H]3C[C@@](C)(O)[C@@H](O)[C@H](C)O3)[C@H](N(C)C)[C@H]2O)[C@@H](CC=O)C[C@@H](C)C(=O)/C=C/C(C)=C/[C@@H]1CO[C@@H]1O[C@H](C)[C@@H](O)[C@@H](OC)[C@H]1OC", "note": "[Tylosin, tylosin, reference compound]", "values": [{"measurement": "MIC", "setting": "[1]", "value": 0.8, "unit": "µg/mL"}, {"measurement": "MIC", "setting": "[2]", "value": 1.6, "unit": "µg/mL"}, {"measurement": "MIC", "setting": "[3]", "value": "> 100", "unit": "µg/mL"}, {"measurement": "MIC", "setting": "[4]; Staphylococcus aureus, 0116", "value": "> 100", "unit": "µg/mL"}, {"measurement": "MIC", "setting": "[5]; Staphylococcus aureus, 0119", "value": "> 100", "unit": "µg/mL"}, {"measurement": "MIC", "setting": "[6]; Staphylococcus aureus, 0127", "value": "> 100", "unit": "µg/mL"}, {"measurement": "MIC", "setting": "[7]", "value": 0.2, "unit": "µg/mL"}, {"measurement": "MIC", "setting": "[8]; Streptococcus pyogenes, 1022", "value": "> 100", "unit": "µg/mL"}]}
